In patent US5424456A, “N-arylalkylderivatives of 2-aminomethyl-2,3-dihydro-1,4-benzodioxine and the process of preparation thereof” (Vyzkumny Ustav Pro Farmacii A Biochemii s.p., priority 1991, dated 1995):
Like-named read-outs stand apart in the source and are kept apart here.

Legend:
calcium channel = target: T1, calcium channel (Rattus norvegicus, UniProt P22002); test: Calcium channel blocking activity, K+ depolarization-induced contraction of helically cut rat aortic strip; conditions: Krebs-Henselheit solution, 37° C., cumulative doses, read-out: IC50 (50% decrease of contraction of the aortic strip)
T1 construct: helically cut rat aortic strip; from tissue; host or cells: rat aorta (helically cut strip)
T1 sequence (P22002 whole entry): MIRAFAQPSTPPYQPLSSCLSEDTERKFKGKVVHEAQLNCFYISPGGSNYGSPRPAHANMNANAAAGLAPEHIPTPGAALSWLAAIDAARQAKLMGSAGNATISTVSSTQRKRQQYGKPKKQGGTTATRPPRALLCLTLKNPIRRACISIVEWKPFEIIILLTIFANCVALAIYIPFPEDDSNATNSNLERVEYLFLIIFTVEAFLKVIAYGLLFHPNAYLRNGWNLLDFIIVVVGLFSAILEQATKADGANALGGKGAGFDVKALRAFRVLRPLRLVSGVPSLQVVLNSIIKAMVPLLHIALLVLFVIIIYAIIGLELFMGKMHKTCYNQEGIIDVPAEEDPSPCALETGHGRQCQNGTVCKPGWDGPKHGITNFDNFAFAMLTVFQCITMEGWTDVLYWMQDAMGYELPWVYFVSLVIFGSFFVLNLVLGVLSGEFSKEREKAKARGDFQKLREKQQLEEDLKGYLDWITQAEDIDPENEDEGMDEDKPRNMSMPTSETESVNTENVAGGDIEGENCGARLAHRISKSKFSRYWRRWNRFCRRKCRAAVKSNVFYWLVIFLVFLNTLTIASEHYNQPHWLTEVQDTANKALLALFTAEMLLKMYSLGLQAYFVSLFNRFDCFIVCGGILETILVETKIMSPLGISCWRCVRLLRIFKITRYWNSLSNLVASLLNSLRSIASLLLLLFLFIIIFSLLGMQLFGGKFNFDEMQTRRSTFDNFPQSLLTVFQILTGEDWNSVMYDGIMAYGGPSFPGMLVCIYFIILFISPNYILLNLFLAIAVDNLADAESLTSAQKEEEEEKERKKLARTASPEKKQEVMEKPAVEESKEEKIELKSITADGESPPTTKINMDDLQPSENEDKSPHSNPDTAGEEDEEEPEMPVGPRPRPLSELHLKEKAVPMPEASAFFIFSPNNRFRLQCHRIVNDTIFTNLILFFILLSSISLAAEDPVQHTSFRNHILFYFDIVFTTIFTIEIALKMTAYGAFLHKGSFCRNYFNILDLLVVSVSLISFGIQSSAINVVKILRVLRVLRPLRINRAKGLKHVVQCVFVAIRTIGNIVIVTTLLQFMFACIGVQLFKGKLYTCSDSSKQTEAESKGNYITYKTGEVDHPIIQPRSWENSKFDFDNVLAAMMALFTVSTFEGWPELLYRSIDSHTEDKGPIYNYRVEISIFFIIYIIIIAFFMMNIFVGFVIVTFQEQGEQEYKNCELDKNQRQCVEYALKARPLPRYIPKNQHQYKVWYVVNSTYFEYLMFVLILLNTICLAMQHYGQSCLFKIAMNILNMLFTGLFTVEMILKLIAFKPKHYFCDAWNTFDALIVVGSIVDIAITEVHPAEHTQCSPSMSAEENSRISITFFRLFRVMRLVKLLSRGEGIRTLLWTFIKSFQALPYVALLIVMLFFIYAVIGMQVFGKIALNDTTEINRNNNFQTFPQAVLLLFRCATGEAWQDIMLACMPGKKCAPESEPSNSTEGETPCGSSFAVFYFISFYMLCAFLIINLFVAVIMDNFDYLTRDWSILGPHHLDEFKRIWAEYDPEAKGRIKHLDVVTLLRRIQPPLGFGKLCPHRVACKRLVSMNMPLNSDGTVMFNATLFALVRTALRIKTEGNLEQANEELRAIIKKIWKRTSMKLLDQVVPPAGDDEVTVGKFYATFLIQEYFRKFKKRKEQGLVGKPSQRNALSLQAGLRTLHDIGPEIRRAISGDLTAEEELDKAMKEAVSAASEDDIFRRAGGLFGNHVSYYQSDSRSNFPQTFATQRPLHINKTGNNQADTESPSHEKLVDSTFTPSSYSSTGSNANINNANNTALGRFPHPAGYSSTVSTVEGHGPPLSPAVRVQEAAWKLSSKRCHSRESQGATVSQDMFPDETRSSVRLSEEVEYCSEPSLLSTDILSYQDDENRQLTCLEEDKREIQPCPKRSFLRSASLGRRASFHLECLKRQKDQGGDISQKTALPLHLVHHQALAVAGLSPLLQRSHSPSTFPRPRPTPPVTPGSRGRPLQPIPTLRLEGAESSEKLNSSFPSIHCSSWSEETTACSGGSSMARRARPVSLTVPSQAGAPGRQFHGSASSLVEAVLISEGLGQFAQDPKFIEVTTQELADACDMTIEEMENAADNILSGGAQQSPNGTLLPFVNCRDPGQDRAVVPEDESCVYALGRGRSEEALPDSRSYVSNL
T1 sequence (P54290 25-1091 partner): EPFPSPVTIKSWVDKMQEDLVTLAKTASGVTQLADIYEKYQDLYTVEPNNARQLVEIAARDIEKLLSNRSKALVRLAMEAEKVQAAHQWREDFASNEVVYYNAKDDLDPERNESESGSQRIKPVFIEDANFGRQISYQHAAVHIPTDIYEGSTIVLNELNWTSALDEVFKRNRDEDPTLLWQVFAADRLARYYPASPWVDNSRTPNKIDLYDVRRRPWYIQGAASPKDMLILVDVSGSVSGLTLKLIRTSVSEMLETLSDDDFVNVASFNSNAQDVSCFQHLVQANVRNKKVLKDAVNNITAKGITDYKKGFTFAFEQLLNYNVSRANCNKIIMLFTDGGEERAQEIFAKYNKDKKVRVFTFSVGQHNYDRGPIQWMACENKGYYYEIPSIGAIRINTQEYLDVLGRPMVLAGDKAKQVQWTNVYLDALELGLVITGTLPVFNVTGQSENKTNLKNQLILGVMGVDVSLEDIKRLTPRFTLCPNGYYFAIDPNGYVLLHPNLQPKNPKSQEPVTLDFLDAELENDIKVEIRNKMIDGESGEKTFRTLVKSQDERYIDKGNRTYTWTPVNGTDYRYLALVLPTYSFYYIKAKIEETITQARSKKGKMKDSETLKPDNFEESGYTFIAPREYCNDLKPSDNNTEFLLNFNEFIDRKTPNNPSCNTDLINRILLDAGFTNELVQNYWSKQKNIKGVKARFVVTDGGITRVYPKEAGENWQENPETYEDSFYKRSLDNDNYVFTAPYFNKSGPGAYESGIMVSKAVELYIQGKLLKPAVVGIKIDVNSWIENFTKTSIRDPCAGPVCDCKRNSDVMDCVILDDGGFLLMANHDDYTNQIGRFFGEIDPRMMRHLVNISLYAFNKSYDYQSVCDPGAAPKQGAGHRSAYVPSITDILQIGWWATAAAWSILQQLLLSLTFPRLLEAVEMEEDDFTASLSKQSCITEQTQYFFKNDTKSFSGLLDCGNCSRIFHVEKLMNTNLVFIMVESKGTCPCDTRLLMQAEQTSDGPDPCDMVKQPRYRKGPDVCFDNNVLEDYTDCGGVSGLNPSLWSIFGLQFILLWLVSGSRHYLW
Description: The calcium channel blocking activity of the compounds was tested using a helically cut rat aortic strip in Krebs-Henselheit solution at 37° C., bubbled with a mixture of 95% O2 and 5% CO2. The isometrically registered contractions were induced by K^(+). depolarization. The test compounds were applied in a cumulative doses and the vasodilating activity thereof was expressed in calculated concentration of the test compound, causing 50% decrease of contraction of the aortic strip (IC50).

α-adrenergic [1] = test: α-adrenergic blocking activity, postdecapitation muscular contractions in rats; format: in vivo, rat; conditions: i.v., 4.6 mg/kg, 30 minutes prior to decapitation
Description: b) The α-adrenergic blocking activity of compounds VUFB 17951 and VUFB 17959 was also shown in the test of influencing the postdecapitation muscular contractions in rats. The test compounds were administered intravenously in the dose of 4.6 mg/kg for VUFB 17951 and […] for VUFB 17959.

[2] = system: rat peripheral venous thrombosis; test: Antithrombotic activity, rat peripheral venous thrombosis in closed abdominal part of vena cava; format: in vivo; conditions: rats, read-out: statistically significant effective dose (mass of thrombi)
Description: The antithrombotic activity of the test compounds was established using the model of rat peripheral venous thrombosis in a closed abdominal part of vena cava. The thrombus was induced by intravenous administration of hypotonic solution of sodium chloride. The thrombus was freed 10 minutes after induction and weighted. The mass of thrombi in control animals was compared to the mass of thrombi of animals administered by the test compound. The statistically significant effective dose for compound VUFB 17951 was 0.5 mg/kg intravenously and 5 mg/kg orally and for the compound VUFB 17959 0.25 mg/kg and 1.0 mg/kg, respectively. The corresponding dose of a standard (Cilostazol, generic name, Merck index, 11th Edition, 2277) was 25 mg/kg orally.

α-adrenergic [3] = target: T2, α-adrenergic (Rattus norvegicus, UniProt P23944); test: α-adrenergic blocking activity, norepinephrine-induced contraction of helically cut rat aortic strip; conditions: 37° C., cumulative doses, read-out: IC50 (concentration causing 50% relaxation)
T2 construct: helically cut rat aortic strip; from tissue; host or cells: rat aorta (helically cut strip)
T2 sequence (P23944 1-561): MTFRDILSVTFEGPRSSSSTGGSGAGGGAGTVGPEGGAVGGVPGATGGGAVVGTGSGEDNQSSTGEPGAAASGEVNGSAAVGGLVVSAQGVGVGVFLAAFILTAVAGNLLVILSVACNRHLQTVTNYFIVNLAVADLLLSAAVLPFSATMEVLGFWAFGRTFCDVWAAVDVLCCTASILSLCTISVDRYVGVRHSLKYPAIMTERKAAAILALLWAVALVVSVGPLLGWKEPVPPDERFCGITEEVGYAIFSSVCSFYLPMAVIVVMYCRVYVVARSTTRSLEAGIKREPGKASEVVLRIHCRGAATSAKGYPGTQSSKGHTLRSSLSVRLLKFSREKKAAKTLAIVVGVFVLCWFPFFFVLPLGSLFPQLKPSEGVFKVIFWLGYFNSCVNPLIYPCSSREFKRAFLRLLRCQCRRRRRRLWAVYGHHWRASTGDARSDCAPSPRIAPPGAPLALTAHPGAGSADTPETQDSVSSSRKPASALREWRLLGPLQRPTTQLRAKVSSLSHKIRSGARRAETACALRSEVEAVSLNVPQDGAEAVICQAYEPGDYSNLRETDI
Description: a) The α-adrenergic blocking activity of the compounds was tested using a helically cut rat aortic strip in a Krebs-Henselheit solution at 37° C., bubbled with a mixture of 95% O2 and 5% CO2. Norepinephrine induced contractions were detected isometrically. The compounds were added in cumulative doses and the relaxing activity was expressed in per cents of the maximum norepinephrine contraction.

blood pressure [4] = test: Hypotensive activity, conscious monkeys; format: in vivo, Macaca mulatta
Description: c) The blood pressure of conscious monkeys (Macaca mulatta) was measured non-invasively on the arm. The average decrease in systolic (SBP) and diastolic (DBP) blood pressure after intravenous and oral administration was expressed in per cents of the starting blood pressure.

blood pressure [5] = test: Hypotensive activity, pentobarbital anaesthesized dogs; format: in vivo, dog
Description: b) The blood pressure of pentobarbital anaesthesized dogs was registered invasively in arteria femoralis. The average decrease in systolic (SBP) arid diastolic (DBP) blood pressure expressed in per cents of the starting blood pressure level after intravenous and oral administration is shown in Tables 5 and 6.

[6] = system: urinary bladder sphincter; test: Effect on the opening pressure of the urinary bladder sphincter; format: in vivo, rat; conditions: rats, compared with prazosin or terazosin
[7] = i.v., 0.46 mg/kg, value 1 of 5 (heads 5/30/60/180 min; probably 1 min)
[8] = i.v., 0.46 mg/kg, value 2 of 5 (heads 5/30/60/180 min; probably 5 min)
[9] = i.v., 0.46 mg/kg, value 3 of 5 (heads 5/30/60/180 min; probably 30 min)
[10] = i.v., 0.46 mg/kg, value 4 of 5 (heads 5/30/60/180 min; probably 60 min)
[11] = i.v., 0.46 mg/kg, value 5 of 5 (heads 5/30/60/180 min; probably 180 min)
[12] = i.v., 4.6 mg/kg, value 1 of 5 (heads 5/30/60/180 min; probably 1 min)
[13] = i.v., 4.6 mg/kg, value 2 of 5 (heads 5/30/60/180 min; probably 5 min)
[14] = i.v., 4.6 mg/kg, value 3 of 5 (heads 5/30/60/180 min; probably 30 min)
[15] = i.v., 4.6 mg/kg, value 4 of 5 (heads 5/30/60/180 min; probably 60 min)
[16] = i.v., 4.6 mg/kg, value 5 of 5 (heads 5/30/60/180 min; probably 180 min)

COc1ccc(C(C#N)(CCCNCC2COc3ccccc3O2)C(C)C)cc1OC (racemic) [VUFB 17951, 5-(2,3-Dihydro-1,4-benzodioxin-2-ylmethylamino)-2-(3,4-dimethoxyphenyl)-2-isopropyl valeronitrile]
IC50 (calcium channel): 18 µM
decrease in number of postdecapitation contractions (α-adrenergic [1]): highly significant decrease in number of postdecapitation contractions
minimal effective dose ([2]; iv, intravenously): 0.5 mg/kg
minimal effective dose ([2]; po, orally): 5 mg/kg
IC50 (α-adrenergic [3]): 6 µM
decrease in diastolic blood pressure (DBP) (blood pressure [4]; i.v., 0.25 mg/kg, 1 min): -49 per cents
decrease in systolic blood pressure (SBP) (blood pressure [4]; i.v., 0.25 mg/kg, 1 min): -37 per cents
decrease in diastolic blood pressure (DBP) (blood pressure [4]; i.v., 0.25 mg/kg, 5 min): -50 per cents
decrease in systolic blood pressure (SBP) (blood pressure [4]; i.v., 0.25 mg/kg, 5 min): -45 per cents
decrease in diastolic blood pressure (DBP) (blood pressure [4]; i.v., 0.25 mg/kg, 30 min): -31 per cents
decrease in systolic blood pressure (SBP) (blood pressure [4]; i.v., 0.25 mg/kg, 30 min): -28 per cents
decrease in diastolic blood pressure (DBP) (blood pressure [4]; i.v., 0.25 mg/kg, 60 min): -17 per cents
decrease in systolic blood pressure (SBP) (blood pressure [4]; i.v., 0.25 mg/kg, 60 min): -11 per cents
decrease in diastolic blood pressure (DBP) (blood pressure [4]; i.v., 0.25 mg/kg, 180 min): -18 per cents
decrease in systolic blood pressure (SBP) (blood pressure [4]; i.v., 0.25 mg/kg, 180 min): -8 per cents
decrease in diastolic blood pressure (DBP) (blood pressure [4]; i.v., 1.0 mg/kg, 1 min): -58 per cents
decrease in systolic blood pressure (SBP) (blood pressure [4]; i.v., 1.0 mg/kg, 1 min): -50 per cents
decrease in diastolic blood pressure (DBP) (blood pressure [4]; i.v., 1.0 mg/kg, 5 min): -60 per cents
decrease in systolic blood pressure (SBP) (blood pressure [4]; i.v., 1.0 mg/kg, 5 min): -53 per cents
decrease in diastolic blood pressure (DBP) (blood pressure [4]; i.v., 1.0 mg/kg, 30 min): -46 per cents
decrease in systolic blood pressure (SBP) (blood pressure [4]; i.v., 1.0 mg/kg, 30 min): -39 per cents
decrease in diastolic blood pressure (DBP) (blood pressure [4]; i.v., 1.0 mg/kg, 60 min): -30 per cents
decrease in systolic blood pressure (SBP) (blood pressure [4]; i.v., 1.0 mg/kg, 60 min): -29 per cents
decrease in diastolic blood pressure (DBP) (blood pressure [4]; i.v., 1.0 mg/kg, 180 min): -23 per cents
decrease in systolic blood pressure (SBP) (blood pressure [4]; i.v., 1.0 mg/kg, 180 min): -19 per cents
decrease in diastolic blood pressure (DBP) (blood pressure [4]; p.o., 10.0 mg/kg, 5-6 hours): -29 per cents
decrease in systolic blood pressure (SBP) (blood pressure [4]; p.o., 10.0 mg/kg, 5-6 hours): -23 per cents
decrease in diastolic blood pressure (DBP) (blood pressure [4]; p.o., 10.0 mg/kg, 0.5 hours): -30 per cents
decrease in systolic blood pressure (SBP) (blood pressure [4]; p.o., 10.0 mg/kg, 0.5 hours): -26 per cents
decrease in diastolic blood pressure (DBP) (blood pressure [4]; p.o., 10.0 mg/kg, 1 hours): -27 per cents
decrease in systolic blood pressure (SBP) (blood pressure [4]; p.o., 10.0 mg/kg, 1 hours): -24 per cents
decrease in diastolic blood pressure (DBP) (blood pressure [4]; p.o., 10.0 mg/kg, 3 hours): -26 per cents
decrease in systolic blood pressure (SBP) (blood pressure [4]; p.o., 10.0 mg/kg, 3 hours): -21 per cents
decrease in diastolic blood pressure (DBP) (blood pressure [4]; p.o., 10.0 mg/kg, 24 hours): -11 per cents
decrease in systolic blood pressure (SBP) (blood pressure [4]; p.o., 10.0 mg/kg, 24 hours): -9 per cents
decrease in diastolic blood pressure (DBP) (blood pressure [5]; [7]): -52 per cents
decrease in systolic blood pressure (SBP) (blood pressure [5]; [7]): -46 per cents
decrease in diastolic blood pressure (DBP) (blood pressure [5]; [8]): -46 per cents
decrease in systolic blood pressure (SBP) (blood pressure [5]; [8]): -47 per cents
decrease in diastolic blood pressure (DBP) (blood pressure [5]; [9]): -40 per cents
decrease in systolic blood pressure (SBP) (blood pressure [5]; [9]): -41 per cents
decrease in diastolic blood pressure (DBP) (blood pressure [5]; [10]): -36 per cents
decrease in systolic blood pressure (SBP) (blood pressure [5]; [10]): -41 per cents
decrease in diastolic blood pressure (DBP) (blood pressure [5]; [11]): -28 per cents
decrease in systolic blood pressure (SBP) (blood pressure [5]; [11]): -26 per cents
decrease in diastolic blood pressure (DBP) (blood pressure [5]; [12]): -53 per cents
decrease in systolic blood pressure (SBP) (blood pressure [5]; [12]): -46 per cents
decrease in diastolic blood pressure (DBP) (blood pressure [5]; [13]): -49 per cents
decrease in systolic blood pressure (SBP) (blood pressure [5]; [13]): -48 per cents
decrease in diastolic blood pressure (DBP) (blood pressure [5]; [14]): -47 per cents
decrease in systolic blood pressure (SBP) (blood pressure [5]; [14]): -42 per cents
decrease in diastolic blood pressure (DBP) (blood pressure [5]; [15]): -42 per cents
decrease in systolic blood pressure (SBP) (blood pressure [5]; [15]): -40 per cents
decrease in diastolic blood pressure (DBP) (blood pressure [5]; [16]): -34 per cents
decrease in systolic blood pressure (SBP) (blood pressure [5]; [16]): -31 per cents
decrease in diastolic blood pressure (DBP) (blood pressure [5]; p.o., 4.6 mg/kg, 15 min): -9 per cents
decrease in systolic blood pressure (SBP) (blood pressure [5]; p.o., 4.6 mg/kg, 15 min): -9 per cents
decrease in diastolic blood pressure (DBP) (blood pressure [5]; p.o., 4.6 mg/kg, 30 min): -11 per cents
decrease in systolic blood pressure (SBP) (blood pressure [5]; p.o., 4.6 mg/kg, 30 min): -11 per cents
decrease in diastolic blood pressure (DBP) (blood pressure [5]; p.o., 4.6 mg/kg, 60 min): -13 per cents
decrease in systolic blood pressure (SBP) (blood pressure [5]; p.o., 4.6 mg/kg, 60 min): -14 per cents
decrease in diastolic blood pressure (DBP) (blood pressure [5]; p.o., 4.6 mg/kg, 120 min): -14 per cents
decrease in systolic blood pressure (SBP) (blood pressure [5]; p.o., 4.6 mg/kg, 120 min): -19 per cents
decrease in diastolic blood pressure (DBP) (blood pressure [5]; p.o., 4.6 mg/kg, 300 min): -19 per cents
decrease in systolic blood pressure (SBP) (blood pressure [5]; p.o., 4.6 mg/kg, 300 min): -24 per cents
duration of action on opening pressure of the urinary bladder sphincter [6]: longer duration of action
lowering of the opening pressure of the urinary bladder sphincter ([6]; corresponding doses): lowered the opening pressure of the urinary bladder sphincter of rats in corresponding doses in the same extent as prazosin
